Conditions: Liquid, Frequency=8 MHz, Pulse-echo method

CCCC [butane]
Conditions | speed of sound [m/s]
199.99 K, 40128 kPa | 1640.8
199.99 K, 45132 kPa | 1662
199.99 K, 50136 kPa | 1682.6
200 K, 1101.4 kPa | 1447.8
200 K, 2102.1 kPa | 1453.5
200 K, 3102.8 kPa | 1459.2
200 K, 4103.5 kPa | 1464.9
200 K, 5104.2 kPa | 1470.5
200 K, 6105.1 kPa | 1476
200 K, 7105.9 kPa | 1481.5
200 K, 8106.6 kPa | 1487
200 K, 9107.3 kPa | 1492.4
200 K, 10108 kPa | 1497.8
200 K, 12610 kPa | 1510.9
200 K, 15112 kPa | 1523.8
200 K, 17613 kPa | 1536.5
200 K, 20115 kPa | 1548.9
200 K, 25119 kPa | 1573.1
200 K, 30123 kPa | 1596.4
200 K, 35126 kPa | 1619
200 K, 60143 kPa | 1722.2
200 K, 70150 kPa | 1759.8
200 K, 80157 kPa | 1795.8
200 K, 90164 kPa | 1830.2
200 K, 100171 kPa | 1863.2
201 K, 250.62 kPa | 1437.2
201 K, 600.55 kPa | 1439.2
201 K, 1100.5 kPa | 1442.1
201 K, 1101.5 kPa | 1442.2
201 K, 2101.9 kPa | 1448
201 K, 2102 kPa | 1448
201 K, 3102.6 kPa | 1453.7
201 K, 4103.4 kPa | 1459.4
201 K, 5104 kPa | 1465
220 K, 249.98 kPa | 1330.5
220 K, 599.68 kPa | 1332.8
220 K, 1100.7 kPa | 1336.1
220 K, 1100.8 kPa | 1336.1
220 K, 2101.6 kPa | 1342.7
220 K, 2101.8 kPa | 1342.7
220 K, 2102.1 kPa | 1342.7
220 K, 2103.4 kPa | 1342.6
220 K, 3102.3 kPa | 1349.1
220 K, 3104.1 kPa | 1349.1
220 K, 4103 kPa | 1355.5
220 K, 4104.7 kPa | 1355.5
220 K, 5103.6 kPa | 1361.9
220 K, 6104.2 kPa | 1368.2
220 K, 7104.9 kPa | 1374.3
220 K, 8105.5 kPa | 1380.5
220 K, 9106.2 kPa | 1386.6
220 K, 10107 kPa | 1392.6
220 K, 12609 kPa | 1407.3
220 K, 15111 kPa | 1421.8
220 K, 17612 kPa | 1435.8
220 K, 20114 kPa | 1449.6
220 K, 25118 kPa | 1476.2
220 K, 30121 kPa | 1501.8
220 K, 35125 kPa | 1526.5
220 K, 40129 kPa | 1550.3
220 K, 45133 kPa | 1573.3
220 K, 50136 kPa | 1595.6
220 K, 60144 kPa | 1638.2
220 K, 70151 kPa | 1678.5
220 K, 80158 kPa | 1716.8
220 K, 90165 kPa | 1753.2
220 K, 100172 kPa | 1788.2
240 K, 252.21 kPa | 1219.3
240 K, 602.15 kPa | 1222
240 K, 1103 kPa | 1225.8
240 K, 2103.5 kPa | 1233.3
240 K, 2104.3 kPa | 1233.3
240 K, 3104.1 kPa | 1240.7
240 K, 3105.1 kPa | 1240.7
240 K, 4104.7 kPa | 1248
240 K, 4105.9 kPa | 1248
240 K, 5105.3 kPa | 1255.2
240 K, 5106.6 kPa | 1255.2
240 K, 6107.3 kPa | 1262.3
240 K, 7108.1 kPa | 1269.3
240 K, 8108.8 kPa | 1276.2
240 K, 9109.5 kPa | 1283.1
240 K, 10110 kPa | 1289.8
240 K, 12612 kPa | 1306.4
240 K, 15113 kPa | 1322.5
240 K, 17615 kPa | 1338.1
240 K, 20116 kPa | 1353.3
240 K, 25120 kPa | 1382.7
240 K, 30123 kPa | 1410.7
240 K, 35127 kPa | 1437.6
240 K, 40130 kPa | 1463.4
240 K, 45134 kPa | 1488.2
240 K, 50138 kPa | 1512.2
240 K, 60145 kPa | 1557.8
240 K, 70152 kPa | 1600.8
240 K, 80158 kPa | 1641.4
240 K, 90165 kPa | 1680
240 K, 100172 kPa | 1716.9
259.99 K, 12610 kPa | 1208.1
259.99 K, 80158 kPa | 1569.8
259.99 K, 90165 kPa | 1610.4
260 K, 251.45 kPa | 1109.1
260 K, 601.45 kPa | 1112.2
260 K, 1102.2 kPa | 1116.6
260 K, 2102.8 kPa | 1125.3
260 K, 2103.1 kPa | 1125.3
260 K, 3103.4 kPa | 1133.8
260 K, 3103.8 kPa | 1133.8
260 K, 4104.1 kPa | 1142.1
260 K, 4104.5 kPa | 1142.2
260 K, 5104.7 kPa | 1150.3
260 K, 5105.2 kPa | 1150.4
260 K, 6105.9 kPa | 1158.5
260 K, 7106.5 kPa | 1166.4
260 K, 8107.2 kPa | 1174.3
260 K, 9108 kPa | 1182
260 K, 10108 kPa | 1189.6
260 K, 15112 kPa | 1226
260 K, 17613 kPa | 1243.4
260 K, 20115 kPa | 1260.3
260 K, 25119 kPa | 1292.5
260 K, 30122 kPa | 1323.2
260 K, 35126 kPa | 1352.3
260 K, 40129 kPa | 1380.2
260 K, 45133 kPa | 1406.9
260 K, 50136 kPa | 1432.6
260 K, 60144 kPa | 1481.3
260 K, 70151 kPa | 1526.8
260 K, 100172 kPa | 1649
280 K, 250.96 kPa | 999.47
280 K, 601 kPa | 1003.1
280 K, 1101.7 kPa | 1008.2
280 K, 2102.4 kPa | 1018.3
280 K, 3103 kPa | 1028.1
280 K, 3103.1 kPa | 1028.2
280 K, 4103.6 kPa | 1037.8
280 K, 4103.9 kPa | 1037.8
280 K, 5104.1 kPa | 1047.2
280 K, 5104.6 kPa | 1047.2
280 K, 6105.4 kPa | 1056.5
280 K, 7106.1 kPa | 1065.6
280 K, 8106.8 kPa | 1074.5
280 K, 9107.5 kPa | 1083.2
280 K, 10108 kPa | 1091.8
280 K, 12610 kPa | 1112.6
280 K, 15112 kPa | 1132.7
280 K, 17613 kPa | 1151.9
280 K, 20115 kPa | 1170.5
280 K, 25118 kPa | 1206
280 K, 30122 kPa | 1239.3
280 K, 35125 kPa | 1270.9
280 K, 40128 kPa | 1300.9
280 K, 45132 kPa | 1329.5
280 K, 50135 kPa | 1357
280 K, 60142 kPa | 1408.7
280 K, 70149 kPa | 1456.8
280 K, 80159 kPa | 1502
280 K, 90166 kPa | 1544.6
280 K, 100173 kPa | 1584.9
299.99 K, 80158 kPa | 1438.2
299.99 K, 90165 kPa | 1482.7
299.99 K, 100172 kPa | 1524.7
300 K, 599.94 kPa | 893.83
300 K, 2102 kPa | 911.89
300 K, 2104.2 kPa | 911.91
300 K, 3102.8 kPa | 923.46
300 K, 3104.9 kPa | 923.48
300 K, 4103.6 kPa | 934.71
300 K, 4105.7 kPa | 934.73
300 K, 5104.4 kPa | 945.67
300 K, 5105.9 kPa | 945.68
300 K, 6106.5 kPa | 956.35
300 K, 7107.2 kPa | 966.78
300 K, 8107.8 kPa | 976.95
300 K, 9108.4 kPa | 986.91
300 K, 10109 kPa | 996.68
300 K, 12610 kPa | 1020.2
300 K, 15112 kPa | 1042.6
300 K, 17614 kPa | 1064
300 K, 20115 kPa | 1084.5
300 K, 25118 kPa | 1123.3
300 K, 30122 kPa | 1159.6
300 K, 35125 kPa | 1193.6
300 K, 40129 kPa | 1225.8
300 K, 45132 kPa | 1256.4
300 K, 50136 kPa | 1285.6
300 K, 60143 kPa | 1340.3
300 K, 70150 kPa | 1390.9
300.01 K, 1100.4 kPa | 899.93
320 K, 601.27 kPa | 783.22

Source: the NIST ThermoML archive (doi:10.1021/acs.jced.6b00577)
